Laboratory results from ChEMBL document CHEMBL1201862, “PubChem BioAssay data set” (2004).
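Five concentrations, 48 hours, 96-well plates. GI50 marks 50% less growth.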 Active and inactive are the calls of the source. No stated cut-off is given here; in the data, active = GI50 up to about 1.1 µM and inactive = higher.

What was measured:
Test in all cases: NCI-60 cell line screen, 48 h
[1] = test system: A549
[2] = test system: CCRF-CEM
[3] = test system: HCT-116
[4] = test system: HOP-92
[5] = test system: HT-29
[6] = test system: KM12
[7] = test system: LOX IMVI
[8] = test system: MCF7
[9] = test system: MDA-MB-435
[10] = test system: MDA-N
[11] = test system: Malme-3M
[12] = test system: OVCAR-4
[13] = test system: PC-3
[14] = test system: SF-295
[15] = test system: SK-MEL-2
[16] = test system: SN12C
[17] = test system: SNB-19
[18] = test system: T47D
[19] = test system: U-251
[20] = test system: UACC-257

For `Oc1ccnc(SCc2ccc(Cl)cc2)n1`, the GI50 [1] was > 100 µM (inactive), the GI50 [2] was > 100 µM (inactive) and the GI50 [3] was > 100 µM (inactive). For the same molecule, the GI50 [4] was > 100 µM (inactive), the GI50 [5] was > 100 µM (inactive) and the GI50 [6] was > 100 µM (inactive). The GI50 [7] was > 100 µM (inactive), the GI50 [8] was > 100 µM (inactive) and the GI50 [9] was > 100 µM (inactive). For the same molecule, the GI50 [10] was > 100 µM (inactive), the GI50 [11] was > 100 µM (inactive) and the GI50 [12] was > 100 µM (inactive). The GI50 [13] was > 100 µM (inactive), the GI50 [14] was 87.1 µM (inactive) and the GI50 [15] was > 100 µM (inactive). The GI50 [16] was > 100 µM (inactive), the GI50 [17] was > 100 µM (inactive) and the GI50 [18] was > 100 µM (inactive). The GI50 [19] was > 100 µM (inactive) and the GI50 [20] was > 100 µM (inactive).
With `COc1ccc2nc(N/N=C/c3ccc(C)s3)cc(C)c2c1` the GI50 [1] was > 100 µM (inactive), the GI50 [2] was 28.1 µM (inactive) and the GI50 [3] was 4.65 µM (inactive). For the same molecule, the GI50 [4] was 13.9 µM (inactive), the GI50 [5] was 6.08 µM (inactive) and the GI50 [6] was 19.7 µM (inactive). For the same molecule, the GI50 [7] was 16.3 µM (inactive), the GI50 [8] was 18 µM (inactive) and the GI50 [9] was 19 µM (inactive). The GI50 [10] was 16.3 µM (inactive), the GI50 [11] was 31 µM (inactive) and the GI50 [12] was 13.9 µM (inactive). For the same molecule, the GI50 [13] was 17.1 µM (inactive), the GI50 [14] was 16.9 µM (inactive) and the GI50 [15] was 21.7 µM (inactive). For the same molecule, the GI50 [16] was 17.9 µM (inactive), the GI50 [17] was 17.3 µM (inactive) and the GI50 [18] was 17.1 µM (inactive). The GI50 [19] was 21.1 µM (inactive) and the GI50 [20] was 17.1 µM (inactive).
With `O=C(c1ccsc1)c1cc2c(s1)C(=O)c1ccsc1C2=O` the GI50 [1] was 0.612 µM (active), the GI50 [2] was 0.155 µM (active) and the GI50 [3] was 0.195 µM (active). For the same molecule, the GI50 [4] was 0.34 µM (active), the GI50 [5] was 0.676 µM (active) and the GI50 [6] was 0.191 µM (active). The GI50 [7] was 0.0211 µM (active), the GI50 [8] was 0.182 µM (active) and the GI50 [9] was 0.0271 µM (active). For the same molecule, the GI50 [10] was 0.0237 µM (active), the GI50 [11] was 0.0202 µM (active) and the GI50 [12] was 0.177 µM (active). For the same molecule, the GI50 [13] was 0.29 µM (active), the GI50 [14] was 0.174 µM (active) and the GI50 [15] was 0.281 µM (active). For the same molecule, the GI50 [16] was 0.0635 µM (active), the GI50 [17] was 0.177 µM (active) and the GI50 [18] was 0.235 µM (active). The GI50 [19] was 0.159 µM (active) and the GI50 [20] was 0.174 µM (active).
With `C=C(CCC/C(C)=C/C=C/[C@@H](C)CCCc1ccoc1)C[C@@H]1OC(=O)[C@H](C)[C@@H]1O` the GI50 [1] was 7.29 µM (inactive), the GI50 [2] was 9.89 µM (inactive) and the GI50 [3] was 13.3 µM (inactive). For the same molecule, the GI50 [4] was 10.6 µM (inactive), the GI50 [5] was > 50 µM (inactive) and the GI50 [6] was 7.24 µM (inactive). For the same molecule, the GI50 [7] was 9.71 µM (inactive), the GI50 [8] was 7.89 µM (inactive) and the GI50 [9] was 7.96 µM (inactive). The GI50 [10] was 9.73 µM (inactive), the GI50 [11] was 8.91 µM (inactive) and the GI50 [12] was 10.2 µM (inactive). The GI50 [13] was 7.31 µM (inactive), the GI50 [14] was 7.6 µM (inactive) and the GI50 [15] was 8.18 µM (inactive). The GI50 [16] was 9.68 µM (inactive), the GI50 [17] was 9.25 µM (inactive) and the GI50 [18] was 8.36 µM (inactive). The GI50 [19] was 11 µM (inactive) and the GI50 [20] was 6.35 µM (inactive).
`CCOc1ccc(C2Oc3c(cccc3OC)C=C2[N+](=O)[O-])cc1OCC` (stereo not given) was tested, and the GI50 [1] was 17.3 µM (inactive), the GI50 [2] was 1.35 µM (inactive) and the GI50 [3] was 1.5 µM (inactive). The GI50 [4] was 12.6 µM (inactive), the GI50 [5] was 2.86 µM (inactive) and the GI50 [6] was 5.43 µM (inactive). The GI50 [7] was 1.97 µM (inactive), the GI50 [8] was 3.52 µM (inactive) and the GI50 [9] was 2.82 µM (inactive). For the same molecule, the GI50 [10] was 2.04 µM (inactive), the GI50 [11] was 2.3 µM (inactive) and the GI50 [12] was 10.9 µM (inactive). The GI50 [13] was 9.33 µM (inactive), the GI50 [14] was 15.3 µM (inactive) and the GI50 [15] was 5.64 µM (inactive). For the same molecule, the GI50 [16] was 10.8 µM (inactive), the GI50 [17] was 15.2 µM (inactive) and the GI50 [18] was 15.7 µM (inactive). The GI50 [19] was 6.49 µM (inactive) and the GI50 [20] was 3.66 µM (inactive).
For `O=C(CBr)NCCc1c[nH]c2ccccc12`, the GI50 [1] was 2.14 µM (inactive), the GI50 [2] was 0.174 µM (active) and the GI50 [3] was 1.65 µM (inactive). For the same molecule, the GI50 [4] was 2.29 µM (inactive), the GI50 [5] was 1.83 µM (inactive) and the GI50 [6] was 1.93 µM (inactive). The GI50 [7] was 0.482 µM (active), the GI50 [8] was 2 µM (inactive) and the GI50 [9] was 1.52 µM (inactive). For the same molecule, the GI50 [10] was 2.02 µM (inactive), the GI50 [11] was 2.94 µM (inactive) and the GI50 [12] was 1.79 µM (inactive). The GI50 [13] was 1.99 µM (inactive), the GI50 [14] was 13.7 µM (inactive) and the GI50 [15] was 1.92 µM (inactive). For the same molecule, the GI50 [16] was 1.45 µM (inactive), the GI50 [17] was 6.17 µM (inactive) and the GI50 [18] was 1.74 µM (inactive). For the same molecule, the GI50 [19] was 1.87 µM (inactive) and the GI50 [20] was 3.01 µM (inactive).
